Reference: paper PMC8434401, “Trifluoromethylated Flavonoid-Based Isoxazoles as Antidiabetic and Anti-Obesity Agents: Synthesis, In Vitro α-Amylase Inhibitory Activity, Molecular Docking and Structure–Activity Relationship Analysis” (Molecules, 2021)
Where two headings read alike, the source gives them in different places.

Legend:
[1] = target: Aspergillus oryzae α-amylase (Aspergillus oryzae, UniProt P0C1B3); assay: biochemical; conditions: for inhibition at 50 µM: read-out: α-Amylase Inhibition PI ± SEM% (percentage inhibition)
Experimental: The α-amylase inhibition assays were carried out according to the protocol described by Chortani et al. (2021), with some modifications. In short, all of the compounds were dissolved in DMSO and then diluted in sodium phosphate buffer (0.02 M, pH 6.9 with 0.006 M NaCl). […] The samples were tested at different concentrations of 50, 25, 12.5, and 6.25 μM. After that, 50 μL of the sample solution was added to 50 μL of Aspergillus oryzae α-amylase solution (0.5 mg/mL) dissolved in the same buffer medium. After pre-incubation for 10 min at 25 °C, 50 μL of starch solution (1% in buffer solution) was added to the mixture. After 10 min of incubation at 25 °C, the product of the reaction was mixed with 100 μL of 3,5-dinitrosalicylic acid solution. At this point, the test tubes were placed for 5 min in a boiling water bath (100 °C), followed by cooling to room temperature. Next, each solution was diluted with 1 mL of distilled water. Over time, the absorbance was measured at 540 nm using a Thermo Scientific™ Multiskan™ GO Microplate Spectrophotometer using a 96-well microplate.
The α-amylase inhibitory activity was determined as follows:PI (%) = 100[(AbsControl−AbsSample)/(AbsControl)] where AbsControl is the absorbance of the solution without sample (buffer instead of the sample solution) and AbsSample is the absorbance of the mixture with the solution of the sample to be tested. […] Each assay was conducted in triplicate.

[2] = Table S1, from the concentration-response curves used to calculate the IC50 values (concentrations in μM), read-out: log(IC50) (converted)
[3] = potency, concentration providing 50% inhibition, mean ± SEM, triplicate, read-out: α-Amylase Inhibition IC50 ± SEM

Compound | melting point | IC50 [1, 2] | IC50 [1, 3] | inhibition at 50 µM [1]
COc1ccc(-c2cc(COc3c(-c4ccc(C(F)(F)F)cc4)oc4ccc(Cl)cc4c3=O)on2)cc1 [Compound 3h, 6-Chloro-3-((3-(4-methoxyphenyl)isoxazol-5-yl)methoxy)-2-(4-(trifluoromethyl)phenyl)-4H-chromen-4-one] | 152 °C | 13.3 µM | 13.3 ± 0.2 µM | 93.5 ± 1.1%
O=c1c(OCc2cc(-c3ccc(Cl)cc3)no2)c(-c2ccc(C(F)(F)F)cc2)oc2ccc(Cl)cc12 [Compound 3c, 6-Chloro-3-((3-(4-chlorophenyl)isoxazol-5-yl)methoxy)-2-(4-(trifluoromethyl)phenyl)-4H-chromen-4-one] | 177 °C | 14.4 µM | 14.4 ± 0.2 µM | 87.1 ± 0.7%
Cc1ccc(-c2cc(COc3c(-c4ccc(C(F)(F)F)cc4)oc4ccc(Cl)cc4c3=O)on2)cc1 [Compound 3e, 6-Chloro-3-((3-(p-tolyl)isoxazol-5-yl)methoxy)-2-(4-(trifluoromethyl)phenyl)-4H-chromen-4-one] | 171 °C | 26 µM | 26 ± 0.7 µM | 65.4 ± 0.4%
C[C@H]1O[C@H](O[C@H]2[C@H](O)[C@@H](O)[C@@H](O[C@H]3[C@H](O)[C@@H](O)C(O)O[C@@H]3CO)O[C@@H]2CO)[C@H](O)[C@@H](O)[C@@H]1N[C@H]1C=C(CO)[C@@H](O)[C@H](O)[C@H]1O (stereo partly shown) [Acarbose, reference compound] | – | – | – | 97.8 ± 0.5%
O=c1c(OCc2cc(-c3ccc([N+](=O)[O-])cc3)no2)c(-c2ccc(C(F)(F)F)cc2)oc2ccc(Cl)cc12 [Compound 3g, 6-Chloro-3-((3-(4-nitrophenyl)isoxazol-5-yl)methoxy)-2-(4-(trifluoromethyl)phenyl)-4H-chromen-4-one] | 175 °C | 18.1 µM | 18.1 ± 0.3 µM | 74.7 ± 0.3%
COc1ccc(-c2cc(COc3c(-c4ccc(C(F)(F)F)cc4)oc4ccc(Cl)cc4c3=O)on2)cc1OC [Compound 3m, 6-Chloro-3-((3-(3,4-dimethoxyphenyl)isoxazol-5-yl)methoxy)-2-(4-(trifluoromethyl)phenyl)-4H-chromen-4-one] | 152 °C | 13.8 µM | 13.8 ± 0.1 µM | 93.3 ± 2%
O=c1c(O)c(-c2ccc(C(F)(F)F)cc2)oc2ccc(Cl)cc12 [Compound 1, 6-Chloro-3-hydroxy-2-(4-(trifluoromethyl)phenyl)-4H-chromen-4-one] | 275 °C | 15.3 µM | 15.3 ± 0.4 µM | 75.2 ± 1.4%
CC(C)(C)c1ccc(-c2cc(COc3c(-c4ccc(C(F)(F)F)cc4)oc4ccc(Cl)cc4c3=O)on2)cc1 [Compound 3f, 3-((3-(4-(Tert-butyl)phenyl)isoxazol-5-yl)methoxy)-6-chloro-2-(4-(trifluoromethyl)phenyl)-4H-chromen-4-one] | 112 °C | 27.6 µM | 27.6 ± 1.1 µM | 64.5 ± 0.7%
C#CCOc1c(-c2ccc(C(F)(F)F)cc2)oc2ccc(Cl)cc2c1=O [Compound 2, 6-Chloro-3-(prop-2-yn-1-yloxy)-2-(4-(trifluoromethyl)phenyl)-4H-chromen-4-one] | 122 °C | 17.7 µM | 17.7 ± 0.2 µM | 75.2 ± 0.3%
O=c1c(OCc2cc(-c3ccccc3)no2)c(-c2ccc(C(F)(F)F)cc2)oc2ccc(Cl)cc12 [Compound 3a, 6-Chloro-3-((3-phenylisoxazol-5-yl)methoxy)-2-(4-(trifluoromethyl)phenyl)-4H-chromen-4-one] | 134 °C | 27.2 µM | 27.2 ± 0.7 µM | 65.6 ± 0.2%
CCCCOc1ccc(-c2cc(COc3c(-c4ccc(C(F)(F)F)cc4)oc4ccc(Cl)cc4c3=O)on2)cc1 [Compound 3i, 3-((3-(4-Butoxyphenyl)isoxazol-5-yl)methoxy)-6-chloro-2-(4-(trifluoromethyl)phenyl)-4H-chromen-4-one] | 130 °C | 15.6 µM | 15.6 ± 0.2 µM | 79.4 ± 1%
COc1ccc(-c2cc(COc3c(-c4ccc(C(F)(F)F)cc4)oc4ccc(Cl)cc4c3=O)on2)cc1Cl [Compound 3k, 6-Chloro-3-((3-(3-chloro-4-methoxyphenyl)isoxazol-5-yl)methoxy)-2-(4-(trifluoromethyl)phenyl)-4H-chromen-4-one] | 141 °C | 21 µM | 21 ± 0.6 µM | 72.5 ± 1.1%
COc1ccc(-c2cc(COc3c(-c4ccc(C(F)(F)F)cc4)oc4ccc(Cl)cc4c3=O)on2)cc1Br [Compound 3l, 3-((3-(3-Bromo-4-methoxyphenyl)isoxazol-5-yl)methoxy)-6-chloro-2-(4-(trifluoromethyl)phenyl)-4H-chromen-4-one] | 144 °C | 23 µM | 23 ± 0.2 µM | 70.4 ± 0.4%
O=c1c(OCc2cc(-c3ccc(Br)cc3)no2)c(-c2ccc(C(F)(F)F)cc2)oc2ccc(Cl)cc12 [Compound 3d, 3-((3-(4-Bromophenyl)isoxazol-5-yl)methoxy)-6-chloro-2-(4-(trifluoromethyl)phenyl)-4H-chromen-4-one] | 179 °C | 14.6 µM | 14.6 ± 0.3 µM | 85.4 ± 0.9%
CCCCOc1ccc(-c2cc(COc3c(-c4ccc(C(F)(F)F)cc4)oc4ccc(Cl)cc4c3=O)on2)cc1Cl [Compound 3j, 3-((3-(4-Butoxy-3-chlorophenyl)isoxazol-5-yl)methoxy)-6-chloro-2-(4-(trifluoromethyl)phenyl)-4H-chromen-4-one] | 134 °C | 13.7 µM | 13.7 ± 0.2 µM | 93.1 ± 0.9%
O=c1c(OCc2cc(-c3ccc(F)cc3)no2)c(-c2ccc(C(F)(F)F)cc2)oc2ccc(Cl)cc12 [Compound 3b, 6-Chloro-3-((3-(4-fluorophenyl)isoxazol-5-yl)methoxy)-2-(4-(trifluoromethyl)phenyl)-4H-chromen-4-one] | 147 °C | 12.6 µM | 12.6 ± 0.2 µM | 94.7 ± 1.2%
